Data: the supplement of paper PMC10307832

Assays:
Assay in all cases: relative viability (nuclei count vs DMSO), 5 days (fraction); higher = more cells survive
Dinaciclib = compound: CCc1cnn2c(NCc3ccc[n+]([O-])c3)cc(N3CCCC[C@H]3CCO)nc12 [Dinaciclib]
Summary of the method: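 A plate was accepted only when its control CV was below 25% and the cells had doubled at least once. Viability is defined from nuclear counts as treated wells divided by vehicle wells, with the median taken across plates. That median covers lung cancer cell lines grown in 1536-well plates, dosed by pinning at five √10-spaced library-drug concentrations, and counted in MetaXpress from 4× Hoechst images after 5 days.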

Dinaciclib + Luminespib = compound: CCc1cnn2c(NCc3ccc[n+]([O-])c3)cc(N3CCCC[C@H]3CCO)nc12 [Dinaciclib] + CCNC(=O)c1noc(-c2cc(C(C)C)c(O)cc2O)c1-c1ccc(CN2CCOCC2)cc1 [Luminespib] (partner 0.01 µM)
Summary of the method: (§1)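 Relative viability was taken as the ratio of nuclei in treated wells to nuclei in vehicle wells. Lung cancer cell lines in 1536-well plates received compounds by pin tool one day after seeding, either one drug alone or a fixed anchor-drug dose plus five library-drug doses (not always all listed) in √10 steps. Nuclei were counted on 4× images after 5 days of treatment, and values are medians of duplicate plates.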

Dinaciclib + Foretinib = compound: CCc1cnn2c(NCc3ccc[n+]([O-])c3)cc(N3CCCC[C@H]3CCO)nc12 [Dinaciclib] + COc1cc2c(Oc3ccc(NC(=O)C4(C(=O)Nc5ccc(F)cc5)CC4)cc3F)ccnc2cc1OCCCN1CCOCC1 [Foretinib] (partner 0.25 µM)
Summary of the method: as §1

Dinaciclib + OSI-027 = compound: CCc1cnn2c(NCc3ccc[n+]([O-])c3)cc(N3CCCC[C@H]3CCO)nc12 [Dinaciclib] + COc1cccc2cc(-c3nc([C@H]4CC[C@H](C(=O)O)CC4)n4ncnc(N)c34)[nH]c12 [OSI-027] (partner 0.5 µM)
Summary of the method: as §1

Dinaciclib + Tozasertib = compound: CCc1cnn2c(NCc3ccc[n+]([O-])c3)cc(N3CCCC[C@H]3CCO)nc12 [Dinaciclib] + Cc1cc(Nc2cc(N3CCN(C)CC3)nc(Sc3ccc(NC(=O)C4CC4)cc3)n2)n[nH]1 [Tozasertib] (partner 0.1 µM)
Summary of the method: as §1

Dinaciclib + Dasatinib = compound: CCc1cnn2c(NCc3ccc[n+]([O-])c3)cc(N3CCCC[C@H]3CCO)nc12 [Dinaciclib] + Cc1nc(Nc2ncc(C(=O)Nc3c(C)cccc3Cl)s2)cc(N2CCN(CCO)CC2)n1 [Dasatinib] (partner 0.075 µM)
Summary of the method: as §1

Dinaciclib + Phenformin = compound: CCc1cnn2c(NCc3ccc[n+]([O-])c3)cc(N3CCCC[C@H]3CCO)nc12 [Dinaciclib] + N=C(N)NC(=N)NCCc1ccccc1 [Phenformin] (partner 250 µM)
Summary of the method: as §1

Dinaciclib + Trametinib = compound: CCc1cnn2c(NCc3ccc[n+]([O-])c3)cc(N3CCCC[C@H]3CCO)nc12 [Dinaciclib] + CC(=O)Nc1cccc(-n2c(=O)n(C3CC3)c(=O)c3c(Nc4ccc(I)cc4F)n(C)c(=O)c(C)c32)c1 [Trametinib] (partner 0.02 µM)
Summary of the method: as §1

Dinaciclib + Palbociclib = compound: CCc1cnn2c(NCc3ccc[n+]([O-])c3)cc(N3CCCC[C@H]3CCO)nc12 [Dinaciclib] + CC(=O)c1c(C)c2cnc(Nc3ccc(N4CCNCC4)cn3)nc2n(C2CCCC2)c1=O [Palbociclib] (partner 0.5 µM)
Summary of the method: as §1

Dinaciclib + AZD7762 = compound: CCc1cnn2c(NCc3ccc[n+]([O-])c3)cc(N3CCCC[C@H]3CCO)nc12 [Dinaciclib] + NC(=O)Nc1cc(-c2cccc(F)c2)sc1C(=O)N[C@H]1CCCNC1 [AZD7762] (partner 0.2 µM)
Summary of the method: as §1

Dinaciclib + Pemetrexed = compound: CCc1cnn2c(NCc3ccc[n+]([O-])c3)cc(N3CCCC[C@H]3CCO)nc12 [Dinaciclib] + Nc1nc2[nH]cc(CCc3ccc(C(=O)N[C@@H](CCC(=O)O)C(=O)O)cc3)c2c(=O)[nH]1 [Pemetrexed] (partner 0.2 µM)
Summary of the method: as §1

Dinaciclib + Decitabine = compound: CCc1cnn2c(NCc3ccc[n+]([O-])c3)cc(N3CCCC[C@H]3CCO)nc12 [Dinaciclib] + Nc1ncn([C@H]2C[C@H](O)[C@@H](CO)O2)c(=O)n1 [Decitabine] (partner 2 µM)
Summary of the method: as §1

Dinaciclib + Vorinostat = compound: CCc1cnn2c(NCc3ccc[n+]([O-])c3)cc(N3CCCC[C@H]3CCO)nc12 [Dinaciclib] + O=C(CCCCCCC(=O)Nc1ccccc1)NO [Vorinostat] (partner 1 µM)
Summary of the method: as §1

Dinaciclib + Olaparib = compound: CCc1cnn2c(NCc3ccc[n+]([O-])c3)cc(N3CCCC[C@H]3CCO)nc12 [Dinaciclib] + O=C(c1cc(Cc2n[nH]c(=O)c3ccccc23)ccc1F)N1CCN(C(=O)C2CC2)CC1 [Olaparib] (partner 8 µM)
Summary of the method: as §1

Cell Line: NCI-H1623
- relative viability (Dinaciclib; 0.009487 µM): 1.02
- relative viability (Dinaciclib; 0.03 µM): 0.332
- relative viability (Dinaciclib; 0.09487 µM): 0.26
- relative viability (Dinaciclib; 0.3 µM): 0.196
- relative viability (Dinaciclib + Luminespib; first compound 0.009487 µM): 0.428
- relative viability (Dinaciclib + Luminespib; first compound 0.03 µM): 0.262
- relative viability (Dinaciclib + Luminespib; first compound 0.09487 µM): 0.132
- relative viability (Dinaciclib + Luminespib; first compound 0.3 µM): 0.144
- relative viability (Dinaciclib + Foretinib; first compound 0.009487 µM): 0.831
- relative viability (Dinaciclib + Foretinib; first compound 0.03 µM): 0.273
- relative viability (Dinaciclib + Foretinib; first compound 0.09487 µM): 0.235
- relative viability (Dinaciclib + Foretinib; first compound 0.3 µM): 0.234
- relative viability (Dinaciclib + OSI-027; first compound 0.009487 µM): 0.397
- relative viability (Dinaciclib + OSI-027; first compound 0.03 µM): 0.236
- relative viability (Dinaciclib + OSI-027; first compound 0.09487 µM): 0.231
- relative viability (Dinaciclib + OSI-027; first compound 0.3 µM): 0.2
- relative viability (Dinaciclib + Tozasertib; first compound 0.009487 µM): 0.437
- relative viability (Dinaciclib + Tozasertib; first compound 0.03 µM): 0.249
- relative viability (Dinaciclib + Tozasertib; first compound 0.09487 µM): 0.207
- relative viability (Dinaciclib + Tozasertib; first compound 0.3 µM): 0.193
- relative viability (Dinaciclib + Dasatinib; first compound 0.009487 µM): 0.518
- relative viability (Dinaciclib + Dasatinib; first compound 0.03 µM): 0.36
- relative viability (Dinaciclib + Dasatinib; first compound 0.09487 µM): 0.207
- relative viability (Dinaciclib + Dasatinib; first compound 0.3 µM): 0.231
- relative viability (Dinaciclib + Phenformin; first compound 0.009487 µM): 0.609
- relative viability (Dinaciclib + Phenformin; first compound 0.03 µM): 0.259
- relative viability (Dinaciclib + Phenformin; first compound 0.09487 µM): 0.213
- relative viability (Dinaciclib + Phenformin; first compound 0.3 µM): 0.225

Cell Line: NCI-H1648
- relative viability (Dinaciclib; 0.009487 µM): 0.788
- relative viability (Dinaciclib; 0.03 µM): 0.301
- relative viability (Dinaciclib; 0.09487 µM): 0.247
- relative viability (Dinaciclib; 0.3 µM): 0.29
- relative viability (Dinaciclib + Trametinib; first compound 0.009487 µM): 0.49
- relative viability (Dinaciclib + Trametinib; first compound 0.03 µM): 0.346
- relative viability (Dinaciclib + Trametinib; first compound 0.09487 µM): 0.241
- relative viability (Dinaciclib + Trametinib; first compound 0.3 µM): 0.264
- relative viability (Dinaciclib + Palbociclib; first compound 0.009487 µM): 0.227
- relative viability (Dinaciclib + Palbociclib; first compound 0.03 µM): 0.223
- relative viability (Dinaciclib + Palbociclib; first compound 0.09487 µM): 0.265
- relative viability (Dinaciclib + Palbociclib; first compound 0.3 µM): 0.224
- relative viability (Dinaciclib + OSI-027; first compound 0.009487 µM): 0.263
- relative viability (Dinaciclib + OSI-027; first compound 0.03 µM): 0.259
- relative viability (Dinaciclib + OSI-027; first compound 0.09487 µM): 0.265
- relative viability (Dinaciclib + OSI-027; first compound 0.3 µM): 0.212
- relative viability (Dinaciclib + Tozasertib; first compound 0.009487 µM): 0.503
- relative viability (Dinaciclib + Tozasertib; first compound 0.03 µM): 0.274
- relative viability (Dinaciclib + Tozasertib; first compound 0.09487 µM): 0.166
- relative viability (Dinaciclib + Tozasertib; first compound 0.3 µM): 0.207
- relative viability (Dinaciclib + AZD7762; first compound 0.009487 µM): 0.85
- relative viability (Dinaciclib + AZD7762; first compound 0.03 µM): 0.577
- relative viability (Dinaciclib + AZD7762; first compound 0.09487 µM): 0.266
- relative viability (Dinaciclib + AZD7762; first compound 0.3 µM): 0.24
- relative viability (Dinaciclib + Pemetrexed; first compound 0.009487 µM): 0.644
- relative viability (Dinaciclib + Pemetrexed; first compound 0.03 µM): 0.677
- relative viability (Dinaciclib + Pemetrexed; first compound 0.09487 µM): 0.25
- relative viability (Dinaciclib + Pemetrexed; first compound 0.3 µM): 0.199
- relative viability (Dinaciclib + Decitabine; first compound 0.009487 µM): 0.468
- relative viability (Dinaciclib + Decitabine; first compound 0.03 µM): 0.218
- relative viability (Dinaciclib + Decitabine; first compound 0.09487 µM): 0.231
- relative viability (Dinaciclib + Decitabine; first compound 0.3 µM): 0.217
- relative viability (Dinaciclib + Vorinostat; first compound 0.009487 µM): 0.275
- relative viability (Dinaciclib + Vorinostat; first compound 0.03 µM): 0.434
- relative viability (Dinaciclib + Vorinostat; first compound 0.09487 µM): 0.294
- relative viability (Dinaciclib + Vorinostat; first compound 0.3 µM): 0.262
- relative viability (Dinaciclib + Olaparib; first compound 0.009487 µM): 0.521
- relative viability (Dinaciclib + Olaparib; first compound 0.03 µM): 0.387
- relative viability (Dinaciclib + Olaparib; first compound 0.09487 µM): 0.234
- relative viability (Dinaciclib + Olaparib; first compound 0.3 µM): 0.219

Cell Line: NCI-H2342
- relative viability (Dinaciclib; 0.009487 µM): 1.11
- relative viability (Dinaciclib; 0.03 µM): 0.696
- relative viability (Dinaciclib; 0.09487 µM): 0.368
- relative viability (Dinaciclib; 0.3 µM): 0.301
- relative viability (Dinaciclib + Trametinib; first compound 0.009487 µM): 0.82
- relative viability (Dinaciclib + Trametinib; first compound 0.03 µM): 0.847
- relative viability (Dinaciclib + Trametinib; first compound 0.09487 µM): 0.343
- relative viability (Dinaciclib + Trametinib; first compound 0.3 µM): 0.31
- relative viability (Dinaciclib + Palbociclib; first compound 0.009487 µM): 0.475
- relative viability (Dinaciclib + Palbociclib; first compound 0.03 µM): 0.575
- relative viability (Dinaciclib + Palbociclib; first compound 0.09487 µM): 0.447
- relative viability (Dinaciclib + Palbociclib; first compound 0.3 µM): 0.271
- relative viability (Dinaciclib + Luminespib; first compound 0.009487 µM): 0.715
- relative viability (Dinaciclib + Luminespib; first compound 0.03 µM): 0.511
- relative viability (Dinaciclib + Luminespib; first compound 0.09487 µM): 0.27
- relative viability (Dinaciclib + Luminespib; first compound 0.3 µM): 0.255
- relative viability (Dinaciclib + Foretinib; first compound 0.009487 µM): 0.998
- relative viability (Dinaciclib + Foretinib; first compound 0.03 µM): 0.739
- relative viability (Dinaciclib + Foretinib; first compound 0.09487 µM): 0.273
- relative viability (Dinaciclib + Foretinib; first compound 0.3 µM): 0.274
- relative viability (Dinaciclib + OSI-027; first compound 0.009487 µM): 0.559
- relative viability (Dinaciclib + OSI-027; first compound 0.03 µM): 0.532
- relative viability (Dinaciclib + OSI-027; first compound 0.09487 µM): 0.32
- relative viability (Dinaciclib + OSI-027; first compound 0.3 µM): 0.315
- relative viability (Dinaciclib + Tozasertib; first compound 0.009487 µM): 0.491
- relative viability (Dinaciclib + Tozasertib; first compound 0.03 µM): 0.468
- relative viability (Dinaciclib + Tozasertib; first compound 0.09487 µM): 0.231
- relative viability (Dinaciclib + Tozasertib; first compound 0.3 µM): 0.203
- relative viability (Dinaciclib + Dasatinib; first compound 0.009487 µM): 0.333
- relative viability (Dinaciclib + Dasatinib; first compound 0.03 µM): 0.289
- relative viability (Dinaciclib + Dasatinib; first compound 0.09487 µM): 0.248
- relative viability (Dinaciclib + Dasatinib; first compound 0.3 µM): 0.23
- relative viability (Dinaciclib + Phenformin; first compound 0.009487 µM): 0.737
- relative viability (Dinaciclib + Phenformin; first compound 0.03 µM): 0.543
- relative viability (Dinaciclib + Phenformin; first compound 0.09487 µM): 0.288
- relative viability (Dinaciclib + Phenformin; first compound 0.3 µM): 0.303
- relative viability (Dinaciclib + AZD7762; first compound 0.009487 µM): 0.627
- relative viability (Dinaciclib + AZD7762; first compound 0.03 µM): 0.572
- relative viability (Dinaciclib + AZD7762; first compound 0.09487 µM): 0.206
- relative viability (Dinaciclib + AZD7762; first compound 0.3 µM): 0.225
- relative viability (Dinaciclib + Pemetrexed; first compound 0.009487 µM): 0.851
- relative viability (Dinaciclib + Pemetrexed; first compound 0.03 µM): 0.56
- relative viability (Dinaciclib + Pemetrexed; first compound 0.09487 µM): 0.3
- relative viability (Dinaciclib + Pemetrexed; first compound 0.3 µM): 0.274
- relative viability (Dinaciclib + Decitabine; first compound 0.009487 µM): 0.78
- relative viability (Dinaciclib + Decitabine; first compound 0.03 µM): 0.583
- relative viability (Dinaciclib + Decitabine; first compound 0.09487 µM): 0.269
- relative viability (Dinaciclib + Decitabine; first compound 0.3 µM): 0.284
- relative viability (Dinaciclib + Vorinostat; first compound 0.009487 µM): 0.75
- relative viability (Dinaciclib + Vorinostat; first compound 0.03 µM): 0.685
- relative viability (Dinaciclib + Vorinostat; first compound 0.09487 µM): 0.703
- relative viability (Dinaciclib + Vorinostat; first compound 0.3 µM): 0.323
- relative viability (Dinaciclib + Olaparib; first compound 0.009487 µM): 0.391
- relative viability (Dinaciclib + Olaparib; first compound 0.03 µM): 0.306
- relative viability (Dinaciclib + Olaparib; first compound 0.09487 µM): 0.176
- relative viability (Dinaciclib + Olaparib; first compound 0.3 µM): 0.192
